Laboratory results taken from the supplement of paper PMC11061612.

How the values were obtained:
[1] = compound: CC1(C)CCC(CN2CCN(c3ccc(C(=O)NS(=O)(=O)c4ccc(NCC5CCOCC5)c([N+](=O)[O-])c4)c(Oc4cnc5[nH]ccc5c4)c3)CC2)=C(c2ccc(Cl)cc2)C1 [Venetoclax]; conditions: max 1 µM
In short: (§1)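 Cancer cell lines were dosed for 72 hours (final DMSO typically 0.2%) after 24 hours at 37°C and 5% CO2 in 1536-well plates containing 7.5 μl DMEM/F12 or RPMI with 10% FBS. Viability came from CellTiter-Glo 2.0 luminescence, scaled between blank-well and DMSO-well means, and dose responses were fitted to a two-parameter logistic curve with a non-linear mixed effects model. The single-agent IC50 was obtained from this fit.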

[2] = compound: C1CN(CCC1(C(=O)N[C@@H](CCO)C2=CC=C(C=C2)Cl)N)C3=NC=NC4=C3C=CN4 [Capivasertib]; conditions: max 10 µM
In short: as §1

[3] = compound: CC(=O)c1c(C)c2cnc(Nc3ccc(N4CCNCC4)cn3)nc2n(C2CCCC2)c1=O [Palbociclib]; conditions: max 10 µM
In short: as §1

[4] = compound: O=C(c1cc(Cc2n[nH]c(=O)c3ccccc23)ccc1F)N1CCN(C(=O)C2CC2)CC1 [Olaparib]; conditions: max 10 µM
In short: as §1

[5] = compound: COc1cccc(OCCCN)c1-c1cc(Nc2cnc(C#N)cn2)n[nH]1 [Prexasertib]; conditions: max 1 µM
In short: as §1

[6] = compound: CN(C)CCCOc1ccc(-c2ccc3ncc4c(c3c2)n(C2CCOCC2)c(=O)n4C)cn1 [AZD0156]; conditions: max 3 µM
In short: as §1

[7] = compound: C[C@@H](Nc1cc(F)cc(F)c1)c1cc(C(=O)N(C)C)cc2c(=O)cc(N3CCOCC3)oc12 [AZD8186]; conditions: max 3 µM
In short: as §1

[8] = compound: CN(CC[C@H](CSC1=CC=CC=C1)NC2=C(C=C(C=C2)S(=O)(=O)NC(=O)C3=CC=C(C=C3)N4CCC(CC4)[C@H](C5=CC=CC=C5C6=CC=C(C=C6)Cl)O)S(=O)(=O)C(F)(F)F)CCO [AZD4320]; conditions: max 1 µM
In short: as §1

[9] = compound: Cc1c2c(nn1C)CSCc1cc(n(C)n1)CSc1cc(c3ccccc3c1)OCCCc1c(C(=O)O)n(C)c3c-2c(Cl)ccc13 [AZD5991]; conditions: max 1 µM
In short: as §1

[10] = compound: CCN(CCO)CCCOc1ccc2c(Nc3cc(CC(=O)Nc4cccc(F)c4)[nH]n3)ncnc2c1 [AZD2811]; conditions: max 1 µM
In short: as §1

[11] = compound: Cn1cnc2c(F)c(Nc3ccc(Br)cc3Cl)c(C(=O)NOCCO)cc21 [Selumetinib]; conditions: max 10 µM
In short: as §1

[12] = compound: COc1nnc2ccc(N3CCC(c4ccc(OCCN5CCN(C)C(=O)[C@H]5C)cc4)CC3)nn12 [AZD5153]; conditions: max 1 µM
In short: as §1

[13] = compound: C[C@@H]1COCCN1C2=NC(=NC(=C2)C3(CC3)[S@](=N)(=O)C)C4=C5C=CNC5=NC=C4 [AZD6738]; conditions: max 10 µM
In short: as §1

[14] = compound: COc1cc(Nc2ncc3c(n2)-c2ccc(Cl)cc2C(c2c(F)cccc2OC)=NC3)ccc1C(=O)O [Alisertib]; conditions: max 10 µM
In short: as §1

[15] = compound: COc1cccc2c1C(=O)c1c(O)c3c(c(O)c1C2=O)C[C@@](O)(C(=O)CO)C[C@@H]3O[C@H]1C[C@H](N)[C@H](O)[C@H](C)O1 [Doxorubicin]; conditions: max 1 µM
In short: as §1

[16] = compound: C[C@@H](Oc1cc(-c2cnn(C3CCNCC3)c2)cnc1N)c1c(Cl)ccc(F)c1Cl [Crizotinib]; conditions: max 10 µM
In short: as §1

[17] = compound: CC(C)n1c(=O)n(C)c2cnc3cc(F)c(-c4ccc(OCCCN5CCCCC5)nc4)cc3c21 [AZD1390]; conditions: max 0.3 µM
In short: as §1

[18] = compound: COc1cc2ncnc(Nc3ccc(F)c(Cl)c3)c2cc1OCCCN1CCOCC1 [Gefitinib]; conditions: max 10 µM
In short: as §1

[19] = compound: CC1=C(C(=CC=C1)Cl)NC(=O)C2=CN=C(S2)NC3=CC(=NC(=N3)C)N4CCN(CC4)CCO [Dasatinib]; conditions: max 2 µM
In short: as §1

[20] = compound: CS(=O)(=O)CCNCc1ccc(-c2ccc3ncnc(Nc4ccc(OCc5cccc(F)c5)c(Cl)c4)c3c2)o1 [Lapatinib]; conditions: max 10 µM
In short: as §1

[21] = compound: C=CCn1c(=O)c2cnc(Nc3ccc(N4CCN(C)CC4)cc3)nc2n1-c1cccc(C(C)(C)O)n1 [AZD1775]; conditions: max 3 µM
In short: as §1

[22] = compound: C[C@@H](c1ccc2nccn2c1)n1nnc2ncc(-c3cnn(C)c3)nc21 [Savolitinib]; conditions: max 1 µM
In short: as §1

[23] = compound: Cc1cc2ncnn2cc1Nc1ncc2c(n1)n(C1CCOCC1)c(=O)n2C [AZD7648]; conditions: max 10 µM
In short: as §1

[24] = compound: CC1=CN2[C@@H](C1)C=NC3=CC(=C(C=C3C2=O)OC)OCCCCCOC4=C(C=C5C(=C4)N=C[C@@H]6CC(=CN6C5=O)C)OC [SG3199]; conditions: max 0.001 µM
In short: as §1

[25] = compound: CCc1c2c(nc3ccc(O)cc13)-c1cc3c(c(=O)n1C2)COC(=O)[C@]3(O)CC [SN-38]; conditions: max 0.3 µM
In short: as §1

[26] = compound: CC(=O)Nc1cccc(-n2c(=O)n(C3CC3)c(=O)c3c(Nc4ccc(I)cc4F)n(C)c(=O)c(C)c32)c1 [Trametinib]; conditions: max 1 µM
In short: as §1

[27] = compound: Cc1nc(-c2cn3c(n2)-c2ccc(-c4cnn(C(C)(C)C(N)=O)c4)cc2OCC3)n(C(C)C)n1 [Taselisib]; conditions: max 10 µM
In short: as §1

Row | Cell Line | IC50, cell viability 72 h [1] [nM] | IC50, cell viability 72 h [2] [nM] | IC50, cell viability 72 h [3] [nM] | IC50, cell viability 72 h [4] [nM] | IC50, cell viability 72 h [5] [nM] | IC50, cell viability 72 h [6] [nM] | IC50, cell viability 72 h [7] [nM] | IC50, cell viability 72 h [8] [nM] | IC50, cell viability 72 h [9] [nM] | IC50, cell viability 72 h [10] [nM] | IC50, cell viability 72 h [11] [nM] | IC50, cell viability 72 h [12] [nM] | IC50, cell viability 72 h [13] [nM] | IC50, cell viability 72 h [14] [nM] | IC50, cell viability 72 h [15] [nM] | IC50, cell viability 72 h [16] [nM] | IC50, cell viability 72 h [17] [nM] | IC50, cell viability 72 h [18] [nM] | IC50, cell viability 72 h [19] [nM] | IC50, cell viability 72 h [20] [nM] | IC50, cell viability 72 h [21] [nM] | IC50, cell viability 72 h [22] [nM] | IC50, cell viability 72 h [23] [nM] | IC50, cell viability 72 h [24] [nM] | IC50, cell viability 72 h [25] [nM] | IC50, cell viability 72 h [26] [nM] | IC50, cell viability 72 h [27] [nM]
1 | NCI-H1781 (Lung Adenocarcinoma) | > 1000 | 7070 | > 10000 | > 10000 | 709 | > 3000 | > 3000 | > 1000 | > 1000 | 583 | > 10000 | > 1000 | > 10000 | 1770 | 107 | > 10000 | > 300 | 5370 | > 2000 | 8920 | 839 | > 1000 | > 10000 | > 1 | 5.06 | > 1000 | 2110
2 | J82 (Bladder Carcinoma) | > 1000 | > 10000 | > 10000 | > 10000 | > 1000 | > 3000 | > 3000 | > 1000 | > 1000 | > 1000 | > 10000 | > 1000 | > 10000 | > 10000 | > 1000 | > 10000 | > 300 | > 10000 | > 2000 | > 10000 | > 3000 | > 1000 | > 10000 | > 1 | 80.5 | > 1000 | > 10000
3 | DMS-273 (Small Cell Lung Carcinoma) | > 1000 | 916 | > 10000 | > 10000 | 32.4 | > 3000 | 1480 | > 1000 | 201 | 114 | > 10000 | 117 | 3450 | 1060 | 458 | 3930 | > 300 | > 10000 | > 2000 | 7430 | 1170 | > 1000 | > 10000 | > 1 | 18.9 | > 1000 | 5580
4 | COR-L23 (Non-Small Cell Lung Carcinoma) | > 1000 | > 10000 | > 10000 | > 10000 | 216 | > 3000 | > 3000 | > 1000 | > 1000 | > 1000 | > 10000 | > 1000 | > 10000 | > 10000 | > 1000 | > 10000 | > 300 | > 10000 | > 2000 | > 10000 | 591 | > 1000 | > 10000 | > 1 | 131 | > 1000 | 5740
